“And” between values parts separate entries of the source, which are not always exact repeats. Equal entries are not always repeated. Toxic doses and inconclusive results are not listed.

This assay deals with P388 leukemia ip, CD2F1 mice, survival T/C. The assay can be described thus: NCI In Vivo Anticancer Drug Screen. Data for tumor model P388 Leukemia (intraperitoneal) in CD2F1 (CDF1) mice. Particulars: endpoint: median survival time, higher = longer survival. The gist of the method: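 Mice carrying the transplanted tumor received test compound or vehicle. Survival was recorded in each group, and the value is the treated-group measurement divided by that of the vehicle-treated control group.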

The mark [1] stands for this setting: dose: 60.0 mg/kg/injection, schedule: Q01DX005 (ip), vehicle: saline with Tween-80.
[2] abbreviates: dose: 120.0 mg/kg/injection, schedule: Q01DX005 (ip), vehicle: saline with Tween-80.
The mark [3] stands for this setting: dose: 240.0 mg/kg/injection, schedule: Q01DX005 (ip), vehicle: saline with Tween-80.
[4] abbreviates: dose: 50.0 mg/kg/injection, schedule: Q01DX005 (ip), vehicle: saline.
[5] abbreviates: dose: 100.0 mg/kg/injection, schedule: Q01DX005 (ip), vehicle: saline.
Where [6] appears, read: dose: 50.0 mg/kg/injection, schedule: Q01DX009 (ip), vehicle: Klucel (hydroxypropylcellulose) (HPC).
The mark [7] stands for this setting: dose: 200.0 mg/kg/injection, schedule: Q01DX009 (ip), vehicle: Klucel (hydroxypropylcellulose) (HPC).
Setting [8] is: dose: 25.0 mg/kg/injection, schedule: Q01DX009 (ip), vehicle: Klucel (hydroxypropylcellulose) (HPC).

As to `CN1CCc2cccc3c2[C@H]1Cc1ccc(O)c(O)c1-3`, the T/C is 95 % of control (dose: 50.0 mg/kg/injection, schedule: Q01DX005 (ip), vehicle: Klucel (hydroxypropylcellulose) (HPC)) and 92 % of control (dose: 100.0 mg/kg/injection, schedule: Q01DX005 (ip), vehicle: Klucel (hydroxypropylcellulose) (HPC)).
For `C=C1CC2(CC(C(=C)C)CC=C2C)OC1=O` (stereo not given), the T/C is 101 % of control (dose: 100.0 mg/kg/injection, schedule: Q01DX001 (ip), vehicle: saline); 104 % of control (dose: 200.0 mg/kg/injection, schedule: Q01DX001 (ip), vehicle: saline); 109 % of control (dose: 400.0 mg/kg/injection, schedule: Q01DX001 (ip), vehicle: saline).
Regarding `OC1OC(Cn2c3ccccc3c3ccccc32)C(O)C(O)C1O` (stereo not given), the T/C reads like this: (dose: 50.0 mg/kg/injection, schedule: Q01DX001 (ip), vehicle: saline with Tween-80) 100 % of control; (dose: 100.0 mg/kg/injection, schedule: Q01DX001 (ip), vehicle: saline with Tween-80) 107 % of control; (dose: 200.0 mg/kg/injection, schedule: Q01DX001 (ip), vehicle: saline with Tween-80) 114 % of control.
Turning to `O=c1oc2ccccc2cc1S(=O)(=O)c1ccc(Cl)cc1`, the T/C is 91 % of control under setting [1], 92 % of control under setting [2] and 91 % of control under setting [3].
In the case of `Cc1ccc2c(c1)C1(C)C=C(CN3CCN(C)CC3)C(=O)CC1O2` (stereo not given), the T/C reads like this: under setting [4], 108 % of control; under setting [5], 103 % of control.
For the molecule `CCCOc1ccc(-c2nc(-c3ccc(N)cc3)cs2)cc1`, the T/C under setting [6] was 111 % of control; the T/C (dose: 100.0 mg/kg/injection, schedule: Q01DX009 (ip), vehicle: Klucel (hydroxypropylcellulose) (HPC)) is 109 % of control; the T/C under setting [7] was 109 % of control.
On to `CC1NC(=O)C2Cc3ccc(O)c(c3)Oc3cccc(c3)C(O)C(C(=O)N2C)N(C)C(=O)C(C)NC(=O)C(Cc2ccc(O)c(O)c2)N(C)C(=O)C(C)NC1=O` (stereo not given), for which the T/C is, setting by setting: (dose: 16.0 mg/kg/injection, schedule: Q01DX009 (ip), vehicle: distilled water + Tween-80) 112 % of control; (dose: 32.0 mg/kg/injection, schedule: Q01DX009 (ip), vehicle: distilled water + Tween-80) 112 % of control; (dose: 64.0 mg/kg/injection, schedule: Q01DX009 (ip), vehicle: distilled water + Tween-80) 122 % of control.
As to `Clc1nc(Cl)nc(Nc2ccccc2Cl)n1`, the T/C by setting is: (dose: 6.25 mg/kg/injection, schedule: Q01DX009 (ip), vehicle: Klucel (hydroxypropylcellulose) (HPC)) 96 % of control; (dose: 12.5 mg/kg/injection, schedule: Q01DX009 (ip), vehicle: Klucel (hydroxypropylcellulose) (HPC)) 99 % of control; under setting [8], 96 % of control; under setting [6], 99 % of control.
For `O=S1(=O)Cc2c3c(c4c(c2C1)CS(=O)(=O)C4)CS(=O)(=O)C3`, the T/C (dose: 50.0 mg/kg/injection, schedule: Q04DX002 (ip), vehicle: Klucel (hydroxypropylcellulose) (HPC)) was 94 % of control; the T/C (dose: 100.0 mg/kg/injection, schedule: Q04DX002 (ip), vehicle: Klucel (hydroxypropylcellulose) (HPC)) was 96 % of control; the T/C (dose: 200.0 mg/kg/injection, schedule: Q04DX002 (ip), vehicle: Klucel (hydroxypropylcellulose) (HPC)) is 98 % of control.
With `CCCC(O)CCC(O)=C1C(=O)CCC1=O` (stereo not given), the T/C is 107 % of control under setting [4]; 107 % of control under setting [5]; 107 % of control (dose: 200.0 mg/kg/injection, schedule: Q01DX005 (ip), vehicle: saline).
As to `CCCCCCCC(O)CCCCCCC`, the T/C is, setting by setting: (dose: 100.0 mg/kg/injection, schedule: Q04DX003 (ip), vehicle: other) 100 % of control; (dose: 200.0 mg/kg/injection, schedule: Q04DX003 (ip), vehicle: other) 100 % of control; (dose: 400.0 mg/kg/injection, schedule: Q04DX003 (ip), vehicle: other) 109 % of control.
For the molecule `COC(=O)/C=C1/Nc2c(N)nc(N)nc2NC1=O`, the T/C was 108 % of control (dose: 100.0 mg/kg/injection, schedule: Q04DX003 (ip), vehicle: saline); 94 % of control (dose: 200.0 mg/kg/injection, schedule: Q04DX003 (ip), vehicle: saline); 95 % of control (dose: 400.0 mg/kg/injection, schedule: Q04DX003 (ip), vehicle: saline).
As for `CCCCCc1c(-c2n[nH]c(C)c2CCCCC)n[nH]c1C`, the T/C is 92 % of control (dose: 60.0 mg/kg/injection, schedule: Q01DX005 (ip), vehicle: Klucel (hydroxypropylcellulose) (HPC)); 96 % of control (dose: 120.0 mg/kg/injection, schedule: Q01DX005 (ip), vehicle: Klucel (hydroxypropylcellulose) (HPC)); 100 % of control (dose: 240.0 mg/kg/injection, schedule: Q01DX005 (ip), vehicle: Klucel (hydroxypropylcellulose) (HPC)).
On to `Cn1c(CC(=O)O)csc1=S`, for which the T/C (dose: 50.0 mg/kg/injection, schedule: Q01DX005 (ip), vehicle: saline with Tween-80) is 93 % of control; the T/C (dose: 100.0 mg/kg/injection, schedule: Q01DX005 (ip), vehicle: saline with Tween-80) is 94 % of control; the T/C (dose: 200.0 mg/kg/injection, schedule: Q01DX005 (ip), vehicle: saline with Tween-80) is 89 % of control.
Consider `N[C@@H](Cc1c[nH]c2ccccc12)C(=O)Nc1nncs1`, for which the T/C is, setting by setting: (dose: 18.75 mg/kg/injection, schedule: Q01DX005 (ip), vehicle: saline) 100 % of control and 102 % of control; (dose: 37.5 mg/kg/injection, schedule: Q01DX005 (ip), vehicle: saline) 98 % of control and 101 % of control; (dose: 50.0 mg/kg/injection, schedule: Q04DX002 (ip), vehicle: suspension in saline) 100 % of control; (dose: 75.0 mg/kg/injection, schedule: Q01DX005 (ip), vehicle: saline) 100 % of control and 101 % of control; (dose: 100.0 mg/kg/injection, schedule: Q04DX002 (ip), vehicle: suspension in saline) 100 % of control; (dose: 150.0 mg/kg/injection, schedule: Q01DX005 (ip), vehicle: saline) 99 % of control and 100 % of control. Moreover, the T/C is 99 % of control (dose: 200.0 mg/kg/injection, schedule: Q04DX002 (ip), vehicle: suspension in saline); 106 % of control and 109 % of control (dose: 300.0 mg/kg/injection, schedule: Q01DX005 (ip), vehicle: saline); 171 % of control (dose: 600.0 mg/kg/injection, schedule: Q04DX002 (ip), vehicle: saline); 151 % of control (dose: 800.0 mg/kg/injection, schedule: Q04DX002 (ip), vehicle: suspension in saline).
Regarding `O=C1CS/C(=N\C(=O)Nc2ccc(Cl)c(Cl)c2)N1`, the T/C was 91 % of control (dose: 6.25 mg/kg/injection, schedule: Q01DX009 (ip), vehicle: saline); 100 % of control (dose: 12.5 mg/kg/injection, schedule: Q01DX009 (ip), vehicle: saline); 94 % of control (dose: 25.0 mg/kg/injection, schedule: Q01DX009 (ip), vehicle: saline); 88 % of control (dose: 50.0 mg/kg/injection, schedule: Q01DX009 (ip), vehicle: saline + alcohol); 91 % of control (dose: 100.0 mg/kg/injection, schedule: Q01DX009 (ip), vehicle: saline + alcohol); 88 % of control (dose: 200.0 mg/kg/injection, schedule: Q01DX009 (ip), vehicle: saline + alcohol).
Take `COC(=O)C(N)Cc1ccc(O)c(O)c1` (stereo not given): the T/C (dose: 50.0 mg/kg/injection, schedule: Q01DX009 (ip), vehicle: saline) was 101 % of control; the T/C (dose: 50.0 mg/kg/injection, schedule: Q08HX028 (ip), vehicle: water) is 99 % of control; the T/C (dose: 100.0 mg/kg/injection, schedule: Q01DX009 (ip), vehicle: saline) is 108 % of control and 115 % of control; the T/C (dose: 100.0 mg/kg/injection, schedule: Q08HX028 (ip), vehicle: water) is 102 % of control; the T/C (dose: 200.0 mg/kg/injection, schedule: Q01DX009 (ip), vehicle: saline) is 111 % of control and 121 % of control; the T/C (dose: 200.0 mg/kg/injection, schedule: Q08HX028 (ip), vehicle: water) was 120 % of control. In addition, the T/C (dose: 800.0 mg/kg/injection, schedule: Q01DX009 (ip), vehicle: saline) is 156 % of control.
As for `CC(=O)OC(CO)C(OC(C)=O)C(CNc1nc(N)[nH]c(=O)c1[N+](=O)[O-])OC(C)=O` (stereo not given), the T/C was 101 % of control under setting [1], 92 % of control under setting [2] and 92 % of control under setting [3].
As for `Cc1cc(OC2OC(CO)C(O)C(O)C2O)ccc1O` (stereo not given), the T/C under setting [8] is 87 % of control, the T/C under setting [6] is 96 % of control and the T/C under setting [7] is 89 % of control.

The record behind these values is PubChem BioAssay AID330 (DTP/NCI, 2004).
